Active and inactive are the calls of the source. No cut-off for these calls is given here.
Key:
MIA PaCa-2 [1] = test: Antiproliferative activity against human MIAPaCa2 cells assessed as growth inhibition after 96 hrs by MTS assay relative to SOP1812; format: functional
MIA PaCa-2 [2] = test: Antitumor activity against human MIAPaCa2 cells xenografted in mouse assessed as change in tumor volume at 15 mg/kg, iv administered twice per week for 28 days and measured at day 28 by Caliper method relative to control; format: functional; conditions: time 28 day
MIA PaCa-2 [3] = test: Antitumor activity against human MIAPaCa2 cells xenografted in mouse assessed as change in tumor volume at 15 mg/kg, iv administered twice per week for 28 days and measured at day 53 by Caliper method relative to control; format: functional; conditions: time 28 day
Mus musculus [4] = test: Down regulation of MAPK11 expression in mouse xenografted with human MIAPaCa2 cells at 15 mg/kg, iv administered twice per week for 28 days and measured on day 28 by Western blot analysis; format: functional, organism-based; conditions: time 28.0 day
Mus musculus [5] = test: Effect on hTERT expression in mouse xenografted with human MIAPaCa2 cells at 15 mg/kg, iv administered twice per week for 28 days and measured on day 28 by Western blot analysis; format: functional, organism-based; conditions: time 28.0 day
Quadruplex DNA = test: Binding affinity to G4 quadruplex DNA in human PANC1 cells assessed as increase in number of BG4 foci at 400 nM after 24 hrs by immunofluorescence based confocal microscopic analysis; format: cell-based; conditions: PANC-1
CAPAN-1 = test: Antiproliferative activity against human Capan1 cells assessed as growth inhibition after 96 hrs by SRB assay; format: functional
BXPC-3 = test: Antiproliferative activity against human BxPC3 cells assessed as growth inhibition after 96 hrs by SRB assay; format: functional
PANC-1 = test: Antiproliferative activity against human PANC1 cells assessed as growth inhibition after 96 hrs by SRB assay; format: functional
MIA PaCa-2 [6] = test: Antiproliferative activity against human MIAPaCa2 cells assessed as growth inhibition after 96 hrs by SRB assay; format: functional
[7] = Half life in mouse xenografted with human MIAPaCa2 cells at 9.1 mg/kg, iv administered as single dose; format: ADME, organism-based; conditions: in vivo
[8] = Clearance in mouse xenografted with human MIAPaCa2 cells at 9.1 mg/kg, iv administered as single dose; format: ADME, organism-based; conditions: in vivo
[9] = Volume of distribution at steady state in mouse xenografted with human MIAPaCa2 cells at 9.1 mg/kg, iv administered as single dose; format: ADME, organism-based; conditions: in vivo, read-out: Vdss
[10] = Apparent volume of distribution in mouse xenografted with human MIAPaCa2 cells at 9.1 mg/kg, iv administered as single dose; format: ADME, organism-based; conditions: in vivo, read-out: Vz
[11] = Cmax in mouse xenografted with human MIAPaCa2 cells at 9.1 mg/kg, iv administered as single dose; format: ADME, organism-based; set-up: route intravenous, dose 9.1 mg/kg; conditions: in vivo
[12] = AUC in mouse xenografted with human MIAPaCa2 cells at 9.1 mg/kg, iv administered as single dose; format: ADME, organism-based; set-up: dose 9.1 mg/kg; conditions: in vivo
[13] = AUC (infinity) in mouse xenografted with human MIAPaCa2 cells at 9.1 mg/kg, iv administered as single dose; format: ADME, organism-based; set-up: route intravenous, time infinity, dose 9.1 mg/kg; conditions: in vivo
[14] = Half life in mouse xenografted with human MIAPaCa2 cells at 14 mg/kg, iv administered as single dose; format: ADME, organism-based; conditions: in vivo
[15] = Clearance in mouse xenografted with human MIAPaCa2 cells at 14 mg/kg, iv administered as single dose; format: ADME, organism-based; conditions: in vivo
[16] = Volume of distribution at steady state in mouse xenografted with human MIAPaCa2 cells at 14 mg/kg, iv administered as single dose; format: ADME, organism-based; conditions: in vivo, read-out: Vdss
[17] = Apparent volume of distribution in mouse xenografted with human MIAPaCa2 cells at 14 mg/kg, iv administered as single dose; format: ADME, organism-based; conditions: in vivo, read-out: Vz
[18] = Cmax in mouse xenografted with human MIAPaCa2 cells at 14 mg/kg, iv administered as single dose; format: ADME, organism-based; set-up: route intravenous, dose 14 mg/kg; conditions: in vivo
[19] = AUC in mouse xenografted with human MIAPaCa2 cells at 14 mg/kg, iv administered as single dose; format: ADME, organism-based; set-up: dose 14 mg/kg; conditions: in vivo
[20] = AUC (infinity) in mouse xenografted with human MIAPaCa2 cells at 14 mg/kg, iv administered as single dose; format: ADME, organism-based; set-up: route intravenous, time infinity, dose 14 mg/kg; conditions: in vivo
MIA PaCa-2 [21] = test: Antitumor activity against human MIAPaCa2 cells xenografted in mouse assessed as mean tumor volume at 10 mg/kg, iv administered twice per week for 28 days and measured at day 28 by Caliper method (reference value: 0.45 +/- 0.18 cm3); format: functional; conditions: time 28 day
MIA PaCa-2 [22] = test: Antitumor activity against human MIAPaCa2 cells xenografted in mouse assessed as change in tumor volume at 10 mg/kg, iv administered twice per week for 28 days and measured at day 28 by Caliper method relative to control; format: functional; conditions: time 28 day
MIA PaCa-2 [23] = test: Antitumor activity against human MIAPaCa2 cells xenografted in mouse assessed as mean tumor volume at 10 mg/kg, iv administered twice per week for 28 days and measured at day 53 by Caliper method (reference value: 1.60 +/- 0.44 cm3); format: functional; conditions: time 28 day
MIA PaCa-2 [24] = test: Antitumor activity against human MIAPaCa2 cells xenografted in mouse assessed as change in tumor volume at 10 mg/kg, iv administered twice per week for 28 days and measured at day 53 by Caliper method relative to control; format: functional; conditions: time 28 day
MIA PaCa-2 [25] = test: Antitumor activity against human MIAPaCa2 cells xenografted in mouse assessed as change in tumor volume at 1 mg/kg, iv administered twice per week for 28 days and measured at day 53 by Caliper method relative to control; format: functional; conditions: time 28 day
Mus musculus [26] = test: Down regulation of MAPK11 expression in mouse xenografted with human MIAPaCa2 cells at 10 mg/kg, iv administered twice per week for 28 days and measured on day 28 by Western blot analysis; format: functional, organism-based; conditions: time 28.0 day
Mus musculus [27] = test: Effect on hTERT expression in mouse xenografted with human MIAPaCa2 cells at 10 mg/kg, iv administered twice per week for 28 days and measured on day 28 by Western blot analysis; format: functional, organism-based; conditions: time 28.0 day

**Q.** For `O=C1c2cc(-c3ccc(CN4CCCCC4)cc3)c3c4c(cc(NCCN5CCCC5)c(c24)C(=O)N1CCCN1CCOCC1)C(=O)N(CCCN1CCOCC1)C3=O`, which “growth inhibition (GI)” value (MIA PaCa-2 [1]) is on record?
**A.** 32%

**Q.** For `O=C1c2cc(-c3ccc(CN4CCOCC4)cc3)c3c4c(cc(NCCN5CCCC5)c(c24)C(=O)N1CCCN1CCOCC1)C(=O)N(CCCN1CCOCC1)C3=O`, which “growth inhibition (GI)” value (MIA PaCa-2 [1]) is on record?
**A.** 19.2%

**Q.** Which “growth inhibition (GI)” value (MIA PaCa-2 [1]) does the source give for `O=C1c2cc(-c3ccc(N4CCCC4)cc3)c3c4c(cc(NCCN5CCCC5)c(c24)C(=O)N1CCCN1CCOCC1)C(=O)N(CCCN1CCOCC1)C3=O` here?
**A.** 1.9%

**Q.** With `Nc1ccn([C@@H]2O[C@H](CO)[C@@H](O)C2(F)F)c(=O)n1` [GEMCITABINE] as the compound, how does the Activity (MIA PaCa-2 [2]) read?
**A.** -71.1%

**Q.** What about the Activity (MIA PaCa-2 [3]) of the same compound?
**A.** -75.6%

**Q.** What about the inhibition (Mus musculus [4]) of the same compound?
**A.** inactive

**Q.** And the Activity (Mus musculus [5])?
**A.** inactive

**Q.** For `O=C1c2cc(-c3ccc(CN4CCCCCC4)cc3)c3c4c(cc(NCCN5CCCC5)c(c24)C(=O)N1CCCN1CCOCC1)C(=O)N(CCCN1CCOCC1)C3=O`, which “growth inhibition (GI)” value (MIA PaCa-2 [1]) is on record?
**A.** 30.7%

**Q.** For `O=C1c2cc(-c3ccccc3CN3CCCC3)c3c4c(cc(NCCN5CCCC5)c(c24)C(=O)N1CCCN1CCOCC1)C(=O)N(CCCN1CCOCC1)C3=O`, which “growth inhibition (GI)” value (MIA PaCa-2 [1]) is on record?
**A.** 2.7%

**Q.** Which results are given for `O=C1c2ccc3c4c(c(NCCN5CCCC5)cc(c24)C(=O)N1CCCN1CCOCC1)C(=O)N(CCCN1CCOCC1)C3=O`?
**A.** Activity (Quadruplex DNA): Active; GI50 (CAPAN-1): 26.5 nM; GI50 (BXPC-3): 15.5 nM; GI50 (PANC-1): 15.6 nM; GI50 (MIA PaCa-2 [6]): 9 nM; half-life [7]: 33 h; clearance [8]: 10.9 mL/min/kg; Vd [9]: 5.2 L/kg; Vd [10]: 27.8 L/kg; Cmax [11]: 4520 ng/mL; AUC [12]: 11100 ng·h/mL; AUC(0-inf) [13]: 14500 ng·h/mL; half-life [14]: 16 h; clearance [15]: 8.1 mL/min/kg; Vd [16]: 2.2 L/kg; Vd [17]: 11.8 L/kg; Cmax [18]: 22100 ng/mL; AUC [19]: 30600 ng·h/mL; AUC(0-inf) [20]: 34400 ng·h/mL; Activity (MIA PaCa-2 [21]): 0.16 cm3; Activity (MIA PaCa-2 [22]): -64.4%; Activity (MIA PaCa-2 [2]): -73.3%; Activity (MIA PaCa-2 [23]): 0.63 cm3; Activity (MIA PaCa-2 [24]): -60.6%; Activity (MIA PaCa-2 [3]): -78.1%; Activity (MIA PaCa-2 [25]): -90.6%; inhibition (Mus musculus [4]): Active; inhibition (Mus musculus [26]): inactive; Activity (Mus musculus [27]): inactive; Activity (Mus musculus [5]): inactive

**Q.** Which “growth inhibition (GI)” value (MIA PaCa-2 [1]) does the source give for `O=C1c2cc(-c3cccc(CN4CCCC4)c3)c3c4c(cc(NCCN5CCCC5)c(c24)C(=O)N1CCCN1CCOCC1)C(=O)N(CCCN1CCOCC1)C3=O` here?
**A.** 19.7%

**Q.** For `CN1CCN(Cc2ccc(-c3cc4c5c(c(NCCN6CCCC6)cc6c5c3C(=O)N(CCCN3CCOCC3)C6=O)C(=O)N(CCCN3CCOCC3)C4=O)cc2)CC1`, which “growth inhibition (GI)” value (MIA PaCa-2 [1]) is on record?
**A.** 20.2%

**Q.** With `O=C(c1ccc(-c2cc3c4c(c(NCCN5CCCC5)cc5c4c2C(=O)N(CCCN2CCOCC2)C5=O)C(=O)N(CCCN2CCOCC2)C3=O)cc1)N1CCCC1` as the compound, how does the “growth inhibition (GI)” value (MIA PaCa-2 [1]) read?
**A.** 10.9%

**Q.** For `CCN(CC)Cc1ccc(-c2cc3c4c(c(NCCN5CCCC5)cc5c4c2C(=O)N(CCCN2CCOCC2)C5=O)C(=O)N(CCCN2CCOCC2)C3=O)cc1`, which “growth inhibition (GI)” value (MIA PaCa-2 [1]) is on record?
**A.** 31.1%

**Q.** For `O=C1c2cc(-c3ccc(CNC4CCCC4)cc3)c3c4c(cc(NCCN5CCCC5)c(c24)C(=O)N1CCCN1CCOCC1)C(=O)N(CCCN1CCOCC1)C3=O`, which “growth inhibition (GI)” value (MIA PaCa-2 [1]) is on record?
**A.** 54.9%

— ChEMBL document CHEMBL4725390, “Asymmetrically Substituted Quadruplex-Binding Naphthalene Diimide Showing Potent Activity in Pancreatic Cancer Models” (ACS Med Chem Lett, 2020)
